Assay results taken from patent US4945162A, “Novel radioactive propyl 2-iodospiroperidol and processes for the preparation thereof” (Sumitomo Chemical Company, Limited, priority 1986, dated 1990).

Target: T1, Dopamine Receptors (Rat Striatal Membranes) (Rattus norvegicus, UniProt P61169)
T1 construct: For ^3 H-SP to Rat Striatal Membranes; from tissue; host or cells: rat striatum (membranes)
Assay: Inhibition of specific ^3 H-SP binding (dopamine receptor binding affinity) to rat striatal membranes
Conditions: for Ki / IC50: 23° C., 30 minutes, ketanserine present; for IC50: nonspecific binding with (+)butaclamol, triplicate; for Relative Potency: relative to 2-ISP = 100
Experimental: PISP, 2-ISP and MISP were screened as for the dopamine receptor binding affinity according to the method reported by Hamblin [Biochem. Pharmacol. 33, 877-887 (1984)]. An aliquot of striatal membrane preparations was incubated at 23° C. for 30 minutes with each of the unlabeled competing drugs (PISP, 2-ISP and MISP) in different concentration, ketanserine and ^3 H-spiroperidol (hereinafter referred to as ^3 H-SP). The incubation was terminated by adding ice-cold TEAN buffer followed by a rapid filtration through a Whatman GF/B filter. The bound ^3 H-SP retained on the filter was extracted with ACS II (Amersham) and counted. All incubations were done in triplicate. Nonspecific binding was determined in tubes containing (+)butaclamol. Specific binding was calculated by subtracting the nonspecific binding from the total binding. IC50 values, the concentrations of the tested compounds that cause 50% inhibition of the specific ^3 H-SP binding, were assessed using from six to eight samples at different concentrations, in triplicate.

T1 sequence (P61169 whole entry): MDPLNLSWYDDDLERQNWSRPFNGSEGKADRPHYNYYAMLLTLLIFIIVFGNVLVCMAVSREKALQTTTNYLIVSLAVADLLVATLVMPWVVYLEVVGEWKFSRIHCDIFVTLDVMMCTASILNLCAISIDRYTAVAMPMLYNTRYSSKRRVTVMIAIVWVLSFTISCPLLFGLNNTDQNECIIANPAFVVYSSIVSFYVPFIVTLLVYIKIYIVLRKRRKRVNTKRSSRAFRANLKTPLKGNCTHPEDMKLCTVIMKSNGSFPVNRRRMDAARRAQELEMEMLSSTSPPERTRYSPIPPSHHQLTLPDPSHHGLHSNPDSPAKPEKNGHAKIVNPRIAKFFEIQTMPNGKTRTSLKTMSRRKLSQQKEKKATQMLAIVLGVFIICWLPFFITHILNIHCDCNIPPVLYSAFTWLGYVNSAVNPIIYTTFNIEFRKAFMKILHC

| Structure (SMILES) | Ki | IC50 | Relative Potency |
| --- | --- | --- | --- |
| O=C(CCCN1CCC2(CC1)C(=O)NCN2c1ccccc1)c1ccc(F)cc1I [2-ISP, 2-iodospiroperidol] | 1 nM | 11 nM | 100 |
| CN1CN(c2ccccc2)C2(CCN(CCCC(=O)c3ccc(F)cc3I)CC2)C1=O [MISP, methyl 2-iodospiroperidol] | 5 nM | 55 nM | 20 |
| CCCN1CN(c2ccccc2)C2(CCN(CCCC(=O)c3ccc(F)cc3I)CC2)C1=O [PISP, 8-[4-(4-fluoro-2-iodophenyl)-4-oxobutyl]-3-propyl-1-phenyl-1,3,8-triazaspiro[4.5]decan-4-one] | 0.2 nM | 2.5 nM | 500 |
